These results are taken from the NIST ThermoML archive (doi:10.1016/j.jct.2007.10.006).

± gives the expanded uncertainty stated by the source.

For this data set the following is noted: Crystal; thermal analyzer.

In the case of `Oc1ccc(/C=C/c2cc(O)cc(O)c2)cc1` [5-[(1E)-2-(4-hydroxyphenyl)-ethenyl]-1,3-benzenediol], the Normal melting temperature stood at 268.1 ± 1 °C.
